Like-named read-outs stand apart in the source and are kept apart here.
Columns and labels:
[1] = 14-day repeat dose toxicity of GC4419 in dog; assay type: in vivo, beagle dogs; settings: both sexes, dog, in vivo, beagle dogs, IV over 15 minutes once daily
Description: (§1) GC4419 was evaluated in a GLP study in beagle dogs. GC4419 was administered intravenously (IV) over 15 minutes, once daily, to beagle dogs for 14 consecutive days. GC4419 was administered IV into the cephalic vein (4 mL/kg) to 3 groups of dogs (4 animals/sex/group) at dosages of 2.5, 5.0 and 7.5 mg/kg with a fourth group receiving vehicle (26 mM sodium bicarbonate in normal saline). […] All animals recovered from these effects. There were no test-article-related differences in group mean hematology, coagulation, or clinical chemistry parameters or urinalysis parameters after 14 days of treatment in any dosing group. At necropsy on day 15, there were neither test-article related gross macroscopic findings nor test-article-related differences in organ weight. No test-article-related histopathological lesions were present.

beagle dogs = test: 14-day repeat dose toxicity of GC4419 in dog; assay type: in vivo; settings: beagle dogs, 2.5, 5.0 and 7.5 mg/kg IV over 15 minutes, 14 days
Description: as §1

[2] = Human Phase 1 pharmacokinetics of GC4403; assay type: in vivo; settings: both sexes, plasma; for AUC(0-t): read-out: AUC0-24 h
Description: In a Phase 1 randomized, double-blind, placebo-controlled single rising dose safety, tolerability and pharmacokinetics study, 54 healthy male and female subjects were dosed from 2.2 to 25 mg of GC4403 administered intravenously over 30 minutes. Disposition of GC4403 is multi-exponential and follows linear pharmacokinetics with generally proportional increases in AUC and Cmax with increasing dose over the dose ranges studied. […] GC4403 is excreted unchanged in the urine and accounts for approximately 9 to 17% of the dose administered. No significant cardiovascular or vital sign effects, no significant physical examination abnormalities, and no significant abnormalities in routine clinical laboratory assessments were observed. Facial tingling, generalized tingling, paraesthesias and facial warmth were reported in a dose responsive manner, occurring at the 16.7 and 25 mg GC4403 doses.
As part of the conduct of the Phase 1a clinical studies for GC4403 and GC4419 described in the Examples herein, plasma samples were collected for measuring the concentration of parent compounds (GC4403 and GC4419) after intravenous infusion. Table 3 illustrates the pharmacokinetic parameter, area under the curve (AUC), representing the total exposure of the subject to the drugs over time.

Sprague-Dawley rats = test: Rat GC4403 28-day IV toxicology; assay type: in vivo; settings: 28 days
Description: GC4403 was evaluated in a 28-day GLP study in Sprague-Dawley rats. GC4403 was administered to rats (10/sex/group) as slow-bolus IV injections at dosages of 0, 1, 3 or 6 mg/kg/day for 28 days. The control (0 dose) group received vehicle (26 mM sodium bicarbonate in normal saline). Evaluations for compound-related effects were based on clinical observations, body weight, food consumption, hematology and clinical chemistry parameters, functional observation battery, organ weights and gross and microscopic postmortem examinations. There were no compound-related changes in organ weights or macroscopic or microscopic pathology. Based on the results of this study, the NOTEL for GC4403, when administered to rats for 28 days as an IV infusion was 3 mg/kg/day.

Structure (SMILES)	NOAEL at 14 days [1] [mg/kg/day]	mortality (beagle dogs)	AUC(0-t) ([2]; 2.2 mg IV over 30 minutes) [ng·h/mL]	AUC(0-t) ([2]; 3.3 mg IV over 30 minutes) [ng·h/mL]	AUC(0-t) ([2]; 4.9 mg IV over 30 minutes) [ng·h/mL]	AUC(0-t) ([2]; 7.4 mg IV over 30 minutes) [ng·h/mL]	AUC(0-t) ([2]; 11.1 mg IV over 30 minutes) [ng·h/mL]	AUC(0-t) ([2]; 16.7 mg IV over 30 minutes) [ng·h/mL]	AUC(0-t) ([2]; 25 mg IV over 30 minutes) [ng·h/mL]	half-life ([2]; IV over 30 minutes, read-out: terminal elimination half-life (converted)) [h]	NOTEL (Sprague-Dawley rats) [mg/kg/day]
[Cl][Mn-5]1234([Cl])[n+]5c6cccc5C[NH+]1[C@H]1CCCC[C@@H]1[NH+]2CC[NH+]3[C@H]1CCCC[C@@H]1[NH+]4C6 (some centres unmarked) [GC4419]	5	No animals died									
[Cl][Mn-5]1234([Cl])[n+]5c6cccc5C[NH+]1[C@@H]1CCCC[C@H]1[NH+]2CC[NH+]3[C@@H]1CCCC[C@H]1[NH+]4C6 (some centres unmarked) [GC4403]			184	310	453	595	1050	1510	2560	~1.5	3
